Entries after “also recorded” stand apart in the source; their conditions may differ.
Assays:
[1] = target: T1, Na-Pi cotransporter (Rattus norvegicus, UniProt Q06496); test: Na+-gradient-dependent 32Pi uptake by renal cortical BBMV (rapid filtration); type: biochemical
T1 construct: from tissue; host or cells: rat renal cortex, brush border membrane vesicles
T1 sequence (Q06496 1-637): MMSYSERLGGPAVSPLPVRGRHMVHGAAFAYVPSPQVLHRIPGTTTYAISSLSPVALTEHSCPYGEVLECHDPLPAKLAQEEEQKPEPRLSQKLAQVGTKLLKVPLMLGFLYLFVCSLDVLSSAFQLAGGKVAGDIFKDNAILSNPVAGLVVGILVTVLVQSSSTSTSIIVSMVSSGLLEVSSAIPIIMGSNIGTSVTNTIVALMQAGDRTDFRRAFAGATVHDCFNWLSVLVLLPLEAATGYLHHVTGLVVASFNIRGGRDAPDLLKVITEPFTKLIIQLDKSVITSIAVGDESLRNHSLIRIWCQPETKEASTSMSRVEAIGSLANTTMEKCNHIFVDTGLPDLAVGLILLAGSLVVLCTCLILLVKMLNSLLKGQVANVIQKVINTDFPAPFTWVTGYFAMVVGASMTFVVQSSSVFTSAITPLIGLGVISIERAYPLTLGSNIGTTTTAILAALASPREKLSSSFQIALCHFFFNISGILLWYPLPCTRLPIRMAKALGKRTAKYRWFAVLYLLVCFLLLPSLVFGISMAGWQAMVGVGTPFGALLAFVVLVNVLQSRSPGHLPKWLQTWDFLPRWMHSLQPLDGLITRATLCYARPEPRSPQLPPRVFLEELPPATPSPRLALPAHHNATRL
Experimental: (§1) The brush border membrane vesicles (BBMV) were prepared from renal cortical tissue of adult male Sprague-Dawley rats of an average body weight of about 220 grams. Rats were fed ad libitum standard rat chow containing 0.7% Pi and had free access to distilled water. Rats were sacrificed under anesthesia and dissected renal cortical tissue was used for preparation of BBMV fraction by the divalent cation-precipitation procedure, employed and described in detail in J. Clin. Invest., 67, 1347 (1981) and J. Biol. Chem., 258, 5695 (1983), with the following modifications: (a) MgCl2 instead of CaCl2 was added to crude homogenate (final concentration 10 mM MgCl2) to precipitate membranes other than BBMV; (b) in the final step, BBMV were washed and equilibrated in a medium of pH=7.5, instead of pH=8.5. The enrichment and specific activities of typical BBM enzymes alkaline phosphatase (APases), γ-glutyamyl transferase (γ-GTT), leucineaminopeptidase (LAP) and maltase with use of these modifications were similar as in BBMV fractions prepared in our previous studies. As a final step in the preparative procedure, the BBMV fraction was washed and resuspended in a medium containing 300 mM mannitol and 5 mM Tris-HEPES adjusted to pH=t.5, referred to as "MTH-medium," unless specified otherwise. The analogous BBMV fractions, using the same procedure, were prepared from renal cortices of mongrel dogs, albino mice and New Zealand albino rabbits.
The BBMV uptake of ^32 Pi, D-[^3 H]-glucose, L-[^3 H]-proline and ^22 Na^+ was measured by means of a rapid filtration technique, as described in J. Clin. Invest., 67, 1347 (1981) and Am. J. Physiol., 246, F133-F139 (1984). Also, unless specified otherwise, the medium for the solute uptake assay consisted of following compounds (in final concentrations): 100 mM mannitol, 100 mM NaCl (or 100 mM KC1) and 5 mM Tris-HEPES (pH=7.5) and eitehr 0.1 mM K2 H^32 PO4, or 0.05 mM D-[^3 H]-glucose, or 0.025 mM L-[^3 H]-proline. IN the ^22 Na^+ uptake studies, the assay medium contained 100 mM ^22 NaCl (^22 NaCl about […] per tube), 100 mM mannitol and 5 mM Tris-HEPES (pH 7.5).
In most experiments, the Na^+ -gradient-dependent ^32 Pi uptake in the concentrative "uphill" phase was measured at 20 seconds period. Since Na^+ -independent Pi uptake in this time period was quantitatively minor component (<5%) of the Na^+ -gradient-dependent Pi uptake, it was not routinely subtracted.

[2] = Hydrolysis of phosphono-compounds (release of Pi) in the BBMV assay; conditions: 1 mM; hydrolysis to release more than 5% Pi
Source text: Compounds studied in the present experiments which inhibited BBM transport of Pi without hydrolysis to release more than 5% Pi are listed in Table 1.

[3] = tested on: L-[^3 H]-proline uptake by BBMV; test: Na+-gradient-dependent uptake of L-[3H]-proline by renal BBMV; type: biochemical, rat; conditions: initial uptake 15 sec, FIG. 2
Experimental: as §1, with “As a final step in the preparative procedure, the BBMV fraction was washed and resuspended in a medium containing 300 mM mannitol and 5 mM Tris-HEPES adjusted to pH=t.5, referred to as "MTH-medium," unless specified otherwise. The analogous BBMV fractions, using the same procedure, were prepared from renal cortices of mongrel dogs, albino mice and New Zealand albino rabbits.” left out
(§2) The BBMV uptake of ^32 Pi, D-[^3 H]-glucose, L-[^3 H]-proline and ^22 Na^+ was measured by means of a rapid filtration technique, as described in J. Clin. Invest., 67, 1347 (1981) and Am. […]

[4] = tested on: D-[^3 H]-glucose uptake by BBMV; test: Na+-gradient-dependent uptake of D-[3H]-glucose by renal BBMV; type: biochemical, rat; conditions: initial uptake 15 sec, FIG. 2
Experimental: as §1, with “As a final step in the preparative procedure, the BBMV fraction was washed and resuspended in a medium containing 300 mM mannitol and 5 mM Tris-HEPES adjusted to pH=t.5, referred to as "MTH-medium," unless specified otherwise. The analogous BBMV fractions, using the same procedure, were prepared from renal cortices of mongrel dogs, albino mice and New Zealand albino rabbits.” left out
as §2

[5] = tested on: diffusional uptake of ^22 Na^+ by BBMV; test: Diffusional uptake of 22Na+ by renal BBMV; type: biochemical, rat; conditions: 1 mM
Experimental: as §1, with “As a final step in the preparative procedure, the BBMV fraction was washed and resuspended in a medium containing 300 mM mannitol and 5 mM Tris-HEPES adjusted to pH=t.5, referred to as "MTH-medium," unless specified otherwise. The analogous BBMV fractions, using the same procedure, were prepared from renal cortices of mongrel dogs, albino mice and New Zealand albino rabbits.” left out
as §2

NCCP(=O)(O)O [2-aminoethylphosphonic acid, reference compound]
effect on Na+-gradient uptake of Pi by renal BBMV (in words) [1]: lacked the inhibitory effect

CC(O)(P(=O)(O)O)P(=O)(O)O [EHDP, disodium ethane-1-hydroxy-1,1-diphosphonate, reference compound]
Note: hydrolysis [2]: no
inhibition at 1000 µM ([1]; 1 mM, initial uptake at 20 sec, rat kidney cortex BBMV, read-out: Δ% (inhibition as percent decrease from control) of Na+-gradient-dependent 32Pi uptake): -27%

O=P(O)(O)CP(=O)(O)O [MDP, Methylenediphosphonic acid, reference compound]
inhibition at 5000 µM ([1]; 5 mM, initial uptake at 20 sec, rat kidney cortex BBMV, read-out: Δ% (inhibition as percent decrease from control) of Na+-gradient-dependent 32Pi uptake): -21%

O=C(O)P(=O)(O)O [PFA, phosphonoformic acid]
effect on Na+-gradient-dependent uptake of L-[3H]-proline [3]: no inhibitory effect
effect on Na+-gradient-dependent uptake of D-[3H]-glucose [4]: no inhibitory effect
22Na+ uptake 120 min ([5]; equilibrium, control 166 ± 25): 192 ± 30 nmoles/mg protein
22Na+ uptake 20 sec ([5]; mean ± SEM of 3 experiments, control 42 ± 4): 45 ± 3 nmoles/mg protein

O=C(O)CCP(=O)(O)O [PPA, phosphonopropionic acid, reference compound]
effect on Na+-gradient uptake of Pi by renal BBMV (in words) [1]: inactive

O=P(O)(O)CO [hydroxymethylphosphonic acid, reference compound]
effect on Na+-gradient uptake of Pi by renal BBMV (in words) [1]: without effect; also recorded: lacked the inhibitory effect

O=P(O)(O)c1ccccc1 [phenylphosphonic acid, reference compound]
effect on Na+-gradient uptake of Pi by renal BBMV (in words) [1]: without effect; also recorded: lacked the inhibitory effect

COC(=O)CP(=O)(OC)OC [trimethylester of PAA, reference compound]
effect on Na+-gradient uptake of Pi by renal BBMV (in words) [1]: without inhibitory effort

COC(=O)P(=O)(OC)OC [trimethylester of TPFA, reference compound]
effect on Na+-gradient uptake of Pi by renal BBMV (in words) [1]: without inhibitory effort

Source: US4806532A, “Inhibition of epithelial phosphate transport” (Mayo Foundation for Medical Education and Research, priority 1985, dated 1989)
